# In patent publication US4568690A, “1-Methyl-5-p-methylbenzoylpyrrole-2-acetamidoacetanilides with antiinflammatory, analgesic, antipyretic and anti-platelet aggregant activity” (priority 1983, dated 1986):
# Key:
# carragenin-induced edema = carragenin-induced edema test (antinflammatory activity); format: in vivo, rats
# Experimental: (§1) Preparations of the compound were administered orally and/or parenterally in a suspension in 0.59% carboxymethylcellulose in pH neutral physiological saline.
# This effect was evaluated with an experimental model reproducing actue inflammation in rats: the carragenin-induced edema test was used, according to the method of C. A. Winter (G. Pharmac. Exp. Ther., 141, 369 (1963)). Table III reports the compounds tested, their concentrations, administration routes and relative percent edema inhibition.
# [1] = test system: p-phenylquinone-induced writhing; experiment: p-phenylquinone-induced writhing test (analgesic activity); format: in vivo; conditions: an hour after administration
# Experimental: as §1
# The determination was made an hour after administration of the product. The inhibitory effect on abdominal contractions induced by phenyl-p-quinone was calculated as follows: [formula]
# Table IV reports the doses, the administration routes and their effectiveness expressed as % protection.
# [2] = test system: hyperthermia induced by dry purified beer yeast; experiment: antipyretic activity, beer yeast-induced hyperthermia; format: in vivo, Wistar strain male albino rats
# Experimental: as §1
# This effect was evaluated by inducing hyperthermia in Wistar strain male albino rats with an average weight of 250±10 g, injecting them intraperitoneally with a 10% suspension of dry purified beer yeast (Carlo Erba) in a volume of 10 ml/Kg of body weight, according to the method of S. Wong et al. (J. Pharmac. Exp. Ther., 185 (1), 127 (1973)).
# [3] = test system: platelet aggregation (ADP-induced); experiment: in vitro anti-platelet aggregant activity (Born's method, ADP); format: cell-based, rat; conditions: Rattus norvegicus, Platelet, ADP 7.08 μmol/l, read-out: Inhibition % (platelet aggregation); for inhibition at 1 µg/mL: 1 γ/ml; for inhibition at 5 µg/mL: 5 γ/ml; for inhibition at 10 µg/mL: 10 γ/ml
# Experimental: This activity was studied in vitro following Born's method (G. W. R. Born, Nature, 194, 937 (1962)) and inducing platelet aggregation with ADP. […] For the aggregation test, 0.2 ml of platelet rich plasma was mixed with a NaCl solution (0.9%) to which the test substance was added up to a final volume of 0.6 ml. Incubation was fixed at 3 minutes at 27° C. After aggregation was induced with ADP, the course of the aggregation was monitored continuously with an Elvi 840 Aggregometer (Elvi Logos--Milan). The antiaggregant effects were determined by the difference in the light transmission of the sample with respect to that of the ADP control. The test compound was compared with aspirin, which has known antiplatelet aggregant activity (H. J. Weiss et al., J. Clin. Inv., 47, 2169 (1968); Platelet Aggregation and Drugs, edited by L. Caprino and E. C. Rossi, page 235, Academic Press (London), 1974).
# Table VI reports the inhibition of platelet aggregation with various doses of the compounds tested at a constant ADP concentration.
# in vivo [4] = conditions: rat
# gastric mucosa = experiment: gastric tolerance (ulcerogenic activity); conditions: orally, four consecutive days; for Mean number severity: severity scale 0-5; for Incidence % / 10: groups of 10 animals
# Experimental: This was studied by testing ulcerogenic activity in male Wistar rats weighing an average of 180 g, using groups of 10 animals each. Three doses of each substance were used, and one group of animals was treated with vehicle only, in a volume of 10 ml/g body weight. Each dose was administered orally for four consecutive days, and the rats were killed on the fifth day and autopsied. The ulcerogenic effect was evaluated on the following scale:
# (1) each hemorrhage point >1 mm was evaluated as 1 lesion
# (2) the hemorrhage points <1 were counted as follows:
# (b) from 1 to 19 2 lesions
# (c) from 1 to 29 3 lesions
# (2) gastric mucosa irritation
# (3) hemorrhage points <1 mm
# (4) hemorrhage points from 1 to 3 mm
# (5) hemorrhage points >3 mm
# This scale was used to calculate the following index of gastric damage: [formula]
# in vivo [5] = conditions: mouse
compound,measurement,setting,value
Cc1ccc(C(=O)c2ccc(CC(=O)NCC(=O)Nc3cccc(C)c3C)n2C)cc1 [Compound 1f],Oedema inhibition %,"carragenin-induced edema; i.p., 10 mg/kg, 3 h",37.1%
same,Oedema inhibition %,"carragenin-induced edema; i.p., 10 mg/kg, 6 h",33.4%
same,Oedema inhibition %,"carragenin-induced edema; i.p., 10 mg/kg, 24 h",0.0%
same,Oedema inhibition %,"carragenin-induced edema; i.p., 50 mg/kg, 3 h",51.6%
same,Oedema inhibition %,"carragenin-induced edema; i.p., 50 mg/kg, 6 h",53.9%
same,Oedema inhibition %,"carragenin-induced edema; i.p., 50 mg/kg, 24 h",4.2%
same,Oedema inhibition %,"carragenin-induced edema; i.p., 100 mg/kg, 3 h",72.5%
same,Oedema inhibition %,"carragenin-induced edema; i.p., 100 mg/kg, 6 h",70.0%
same,Oedema inhibition %,"carragenin-induced edema; i.p., 100 mg/kg, 24 h",19.1%
same,Oedema inhibition %,"carragenin-induced edema; os, 10 mg/kg, 3 h",32.6%
same,Oedema inhibition %,"carragenin-induced edema; os, 10 mg/kg, 6 h",34.1%
same,Oedema inhibition %,"carragenin-induced edema; os, 10 mg/kg, 24 h",0.0%
same,Oedema inhibition %,"carragenin-induced edema; os, 50 mg/kg, 3 h",49.1%
same,Oedema inhibition %,"carragenin-induced edema; os, 50 mg/kg, 6 h",49.0%
same,Oedema inhibition %,"carragenin-induced edema; os, 50 mg/kg, 24 h",3.4%
same,Oedema inhibition %,"carragenin-induced edema; os, 100 mg/kg, 3 h",69.7%
same,Oedema inhibition %,"carragenin-induced edema; os, 100 mg/kg, 6 h",69.0%
same,Oedema inhibition %,"carragenin-induced edema; os, 100 mg/kg, 24 h",22.1%
same,Protection %,"[1]; i.p., 5 mg/kg",15.3%
same,Protection %,"[1]; i.p., 10 mg/kg",47.0%
same,Protection %,"[1]; i.p., 20 mg/kg",75.0%
same,Protection %,"[1]; os, 5 mg/kg",18.0%
same,Protection %,"[1]; os, 10 mg/kg",42.1%
same,Protection %,"[1]; os, 20 mg/kg",70.3%
same,Temperature decrease %,"[2]; i.p., 50 mg/kg, 1 h",12.1%
same,Temperature decrease %,"[2]; i.p., 50 mg/kg, 2 h",25.0%
same,Temperature decrease %,"[2]; i.p., 50 mg/kg, 3 h",29.8%
same,Temperature decrease %,"[2]; i.p., 75 mg/kg, 1 h",16.3%
same,Temperature decrease %,"[2]; i.p., 75 mg/kg, 2 h",30.1%
same,Temperature decrease %,"[2]; i.p., 75 mg/kg, 3 h",35.1%
same,Temperature decrease %,"[2]; i.p., 100 mg/kg, 1 h",38.7%
same,Temperature decrease %,"[2]; i.p., 100 mg/kg, 2 h",43.0%
same,Temperature decrease %,"[2]; i.p., 100 mg/kg, 3 h",40.0%
same,Temperature decrease %,"[2]; os, 50 mg/kg, 1 h",15.1%
same,Temperature decrease %,"[2]; os, 50 mg/kg, 6 h",20.0%
same,Temperature decrease %,"[2]; os, 50 mg/kg, 24 h",28.7%
same,Temperature decrease %,"[2]; os, 75 mg/kg, 1 h",18.2%
same,Temperature decrease %,"[2]; os, 75 mg/kg, 6 h",29.5%
same,Temperature decrease %,"[2]; os, 75 mg/kg, 24 h",28.7%
same,Temperature decrease %,"[2]; os, 100 mg/kg, 1 h",22.1%
same,Temperature decrease %,"[2]; os, 100 mg/kg, 6 h",32.0%
same,Temperature decrease %,"[2]; os, 100 mg/kg, 24 h",38.1%
same,inhibition at 1 µg/mL,[3],22%
same,inhibition at 5 µg/mL,[3],75%
same,inhibition at 10 µg/mL,[3],90%
same,LD50,in vivo [4]; ip,1100 mg/kg
same,Mean number lesions,gastric mucosa; 50 mg/kg,1
same,Mean number severity,gastric mucosa; 50 mg/kg,1
same,Mean number lesions,gastric mucosa; 100 mg/kg,2
same,Mean number severity,gastric mucosa; 100 mg/kg,3
same,Mean number lesions,gastric mucosa; 200 mg/kg,3
same,Mean number severity,gastric mucosa; 200 mg/kg,3
Cc1ccc(C(=O)c2ccc(CC(=O)NCC(=O)Nc3cccc(Cl)c3)n2C)cc1 [Compound 1b],Oedema inhibition %,"carragenin-induced edema; i.p., 10 mg/kg, 3 h",30.1%
same,Oedema inhibition %,"carragenin-induced edema; i.p., 10 mg/kg, 6 h",29.0%
same,Oedema inhibition %,"carragenin-induced edema; i.p., 10 mg/kg, 24 h",0.0%
same,Oedema inhibition %,"carragenin-induced edema; i.p., 50 mg/kg, 3 h",49.2%
same,Oedema inhibition %,"carragenin-induced edema; i.p., 50 mg/kg, 6 h",43.5%
same,Oedema inhibition %,"carragenin-induced edema; i.p., 50 mg/kg, 24 h",2.3%
same,Oedema inhibition %,"carragenin-induced edema; i.p., 100 mg/kg, 3 h",65.4%
same,Oedema inhibition %,"carragenin-induced edema; i.p., 100 mg/kg, 6 h",62.0%
same,Oedema inhibition %,"carragenin-induced edema; i.p., 100 mg/kg, 24 h",16.4%
same,Oedema inhibition %,"carragenin-induced edema; os, 10 mg/kg, 3 h",29.8%
same,Oedema inhibition %,"carragenin-induced edema; os, 10 mg/kg, 6 h",22.3%
same,Oedema inhibition %,"carragenin-induced edema; os, 10 mg/kg, 24 h",0.0%
same,Oedema inhibition %,"carragenin-induced edema; os, 50 mg/kg, 3 h",47.3%
same,Oedema inhibition %,"carragenin-induced edema; os, 50 mg/kg, 6 h",44.1%
same,Oedema inhibition %,"carragenin-induced edema; os, 50 mg/kg, 24 h",0.0%
same,Oedema inhibition %,"carragenin-induced edema; os, 100 mg/kg, 3 h",61.9%
same,Oedema inhibition %,"carragenin-induced edema; os, 100 mg/kg, 6 h",59.8%
same,Oedema inhibition %,"carragenin-induced edema; os, 100 mg/kg, 24 h",15.3%
same,Protection %,"[1]; i.p., 5 mg/kg",18.7%
same,Protection %,"[1]; i.p., 10 mg/kg",42.3%
same,Protection %,"[1]; i.p., 20 mg/kg",69.5%
same,Protection %,"[1]; os, 5 mg/kg",16.1%
same,Protection %,"[1]; os, 10 mg/kg",36.2%
same,Protection %,"[1]; os, 20 mg/kg",69.1%
same,Temperature decrease %,"[2]; i.p., 50 mg/kg, 1 h",16.0%
same,Temperature decrease %,"[2]; i.p., 50 mg/kg, 2 h",19.3%
same,Temperature decrease %,"[2]; i.p., 50 mg/kg, 3 h",33.0%
same,Temperature decrease %,"[2]; i.p., 75 mg/kg, 1 h",26.0%
same,Temperature decrease %,"[2]; i.p., 75 mg/kg, 2 h",36.1%
same,Temperature decrease %,"[2]; i.p., 75 mg/kg, 3 h",40.0%
same,Temperature decrease %,"[2]; i.p., 100 mg/kg, 1 h",39.1%
same,Temperature decrease %,"[2]; i.p., 100 mg/kg, 2 h",40.0%
same,Temperature decrease %,"[2]; i.p., 100 mg/kg, 3 h",30.5%
same,Temperature decrease %,"[2]; os, 50 mg/kg, 1 h",19.0%
same,Temperature decrease %,"[2]; os, 50 mg/kg, 6 h",19.5%
same,Temperature decrease %,"[2]; os, 50 mg/kg, 24 h",29.8%
same,Temperature decrease %,"[2]; os, 75 mg/kg, 1 h",20.0%
same,Temperature decrease %,"[2]; os, 75 mg/kg, 6 h",30.0%
same,Temperature decrease %,"[2]; os, 75 mg/kg, 24 h",40.1%
same,Temperature decrease %,"[2]; os, 100 mg/kg, 1 h",30.0%
same,Temperature decrease %,"[2]; os, 100 mg/kg, 6 h",33.1%
same,Temperature decrease %,"[2]; os, 100 mg/kg, 24 h",31.2%
same,inhibition at 1 µg/mL,[3],25%
same,inhibition at 5 µg/mL,[3],100%
same,inhibition at 10 µg/mL,[3],100%
same,LD50,in vivo [5]; ip,1370 mg/kg
same,LD50,in vivo [5]; po,> 1500 mg/kg
same,LD50,in vivo [4]; ip,1200 mg/kg
same,LD50,in vivo [4]; po,> 1420 mg/kg
same,Index gastric damage,gastric mucosa; 50 mg/kg,8
same,"Index gastric damage, signed figure (untitled; difference from Carrier index 8)",gastric mucosa; 50 mg/kg,+0
same,Mean number lesions,gastric mucosa; 50 mg/kg,1
same,Incidence % / 10,gastric mucosa; 50 mg/kg,5 %/10
same,Mean number severity,gastric mucosa; 50 mg/kg,2
same,Index gastric damage,gastric mucosa; 100 mg/kg,11
same,"Index gastric damage, signed figure (untitled; difference from Carrier index 8)",gastric mucosa; 100 mg/kg,+3
same,Mean number lesions,gastric mucosa; 100 mg/kg,2
same,Incidence % / 10,gastric mucosa; 100 mg/kg,7 %/10
same,Mean number severity,gastric mucosa; 100 mg/kg,2
same,Index gastric damage,gastric mucosa; 200 mg/kg,14
same,"Index gastric damage, signed figure (untitled; difference from Carrier index 8)",gastric mucosa; 200 mg/kg,+6
same,Mean number lesions,gastric mucosa; 200 mg/kg,3
same,Incidence % / 10,gastric mucosa; 200 mg/kg,8 %/10
same,Mean number severity,gastric mucosa; 200 mg/kg,3
